# Columns and labels:
# androgen receptor (AR) = target: T1, androgen receptor (AR) (Rattus norvegicus, UniProt P15207); experiment: AR binding assay, competition with [3H]-mibolerone binding in rat ventral prostate cytosol; details: 1 nM [3H]-mibolerone, overnight at 0° C.; for inhibition at 0.2 µM: test compound 0.2 μM; for inhibition at 2 µM: test compound 2.0 μM
# T1 construct: Ventral prostates were obtained form rats castrated 24 h prior to sacrifice; from tissue; host or cells: rat ventral prostate cytosol (castrated rats, charcoal-treated)
# T1 sequence (P15207 1-902): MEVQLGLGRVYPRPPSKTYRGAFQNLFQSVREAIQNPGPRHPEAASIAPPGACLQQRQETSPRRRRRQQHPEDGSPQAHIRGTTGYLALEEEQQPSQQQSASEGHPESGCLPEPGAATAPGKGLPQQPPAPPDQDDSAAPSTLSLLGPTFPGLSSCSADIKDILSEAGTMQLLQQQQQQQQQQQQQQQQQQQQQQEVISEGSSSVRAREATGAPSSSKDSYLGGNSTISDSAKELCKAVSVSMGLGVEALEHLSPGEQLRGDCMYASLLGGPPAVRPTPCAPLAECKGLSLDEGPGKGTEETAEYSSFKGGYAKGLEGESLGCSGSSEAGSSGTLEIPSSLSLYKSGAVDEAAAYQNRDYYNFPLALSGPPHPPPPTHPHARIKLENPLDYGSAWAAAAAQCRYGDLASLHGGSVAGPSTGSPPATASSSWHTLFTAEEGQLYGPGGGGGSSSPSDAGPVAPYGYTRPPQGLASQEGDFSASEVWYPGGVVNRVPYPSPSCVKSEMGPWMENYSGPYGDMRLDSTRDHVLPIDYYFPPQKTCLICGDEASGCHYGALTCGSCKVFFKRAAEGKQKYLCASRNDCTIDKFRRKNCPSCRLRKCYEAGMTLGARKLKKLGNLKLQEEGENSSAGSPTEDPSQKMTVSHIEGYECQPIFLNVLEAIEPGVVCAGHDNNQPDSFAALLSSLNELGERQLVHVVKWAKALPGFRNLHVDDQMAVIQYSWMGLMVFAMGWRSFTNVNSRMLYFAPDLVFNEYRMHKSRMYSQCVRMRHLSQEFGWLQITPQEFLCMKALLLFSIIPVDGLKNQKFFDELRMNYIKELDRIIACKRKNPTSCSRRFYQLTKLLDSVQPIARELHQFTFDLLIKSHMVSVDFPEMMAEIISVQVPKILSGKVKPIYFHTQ
# Procedure: Ventral prostates were obtained form rats castrated 24 h prior to sacrifice. Fresh prostate was minced and washed with Buffer A (Schilling and Liao, Prostate, 5:581-588, 1984). The minces were then homogenized in 3× volume of Buffer A containing protease inhibitors (Complete, Mini, EDTA-free Roche). The homogenate was centrifuged at 30000 g for 30 min. The resultant supernatants were treated with 1×volume of dextran-coated charcoal solution (12.5 g activated charcoal, 12.5 g dextran per liter of buffer A) to remove endogenous steroids. The samples were incubated for 5 min and centrifuged at 16000 g for 10 min. Aliquots of the charcoal-treated cytosol were taken for androgen receptor assays. All procedures were carried out at 0-4° C.
# Cytosol androgen receptor concentration was determined as described (Isomaa et al., Endocrinology, 111: 833-843, 1982) with minor modifications. Cytosol preparations were prepared as described above, and bound and free steroids were separated by treatment with an equal volume of dextran-charcoal suspension for 5 min at 4° C. followed by centrifugation at 16000 g for 10 min. Bound radioactivity was determined by counting supernatant fractions in 1 ml of OptiPhase HiSafe3 or OptiPhase Supermix (PerkinElmer).
# Cytosol preparations were labelled with 1 nM [^3H]-mibolerone overnight at 0° C. (total). To determine AR binding activity of the compounds of the present invention (test compounds), the ability of test compounds to compete with [^3H]7α,17α-dimethyl-17β-hydroxy-4-estren-3-one ([^3H]-mibolerone) binding was studied. 1 nM [^3H]-mibolerone and test compounds in two concentrations (0.2 and 2 uM) were incubated overnight at 0° C. To determine non-specific binding, parallel incubations were carried out using 1 nM concentration [^3H]-mibolerone with 500-fold molar excess of unlabelled testosterone. Two to four replicates were used for each sample. After incubation, bound and free steroids were separated as described above and bound radioactivity was determined. The ability of the test compounds to bind AR is reported as reduction in bound radioactivity obtained with 1 nM [^3H]-mibolerone. The results (% inhibition) were calculated as: % inhibition=100−(100×(averagetest compound/averagetotal)).
# AR = target: T2, AR (Rattus norvegicus, UniProt P15207); experiment: AR agonism and antagonism in immature male rats, 3-day assay, relative organ weights
# T2 sequence (P15207 1-902): T1 sequence (P15207 1-902)
# Procedure: The title compound of Example 3, abbreviated here as compound A, was further studied in in vivo experiment. The agonism and antagonism of the compound with subcutaneous dosing was tested in immature male Spraque Dawley rat 3-day assay by analyzing the relative weights of ventral prostate, seminal vesicle, and levator ani-muscle. Testosterone propionate was used as a reference compound.
# Testosterone propionate (abbreviated here TP) and compound A were first dissolved into DMSO and then into the vehicle sesame oil. Sprague-Dawley untreated male rats (18-19 days old) weighing about 50 g were used in the experiment. Rats were weighed and randomly distributed into five groups, with 5 animals per group (Table 1). Compound A (doses 2 and 20 mg/kg) and testosterone propionate (dose 5 mg/kg) were given subcutaneously (s.c.) into the neck/back of the animals at a constant volume of 100 microl dosing solution/animal/day. The animals were dosed once daily for three days, and clinical signs were recorded during dosing. At the end of the study, animals were weighed and anaesthetised by CO2 asphyxiation. Ventral prostate, seminal vesicles, and levator ani-muscle were dissected out, chilled, and weighed. For statistical analysis, the weights of all organs were normalized to body weights, and analyzed for statistical significant difference by single-factor ANOVA.
# In the Figure, “a” means agonism, p<0.01 compared to vehicle group, “b” means antagonism, p<0.05 compared to testosterone group, bars represent mean±SEM.
# [1] = 20 mg/kg s.c. once daily for three days, immature male rat
# [2] = 5 mg/kg s.c. once daily for three days, immature male rat
Compound,inhibition at 0.2 µM (androgen receptor (AR)) [%],inhibition at 2 µM (androgen receptor (AR)) [%],other results
"CC(=O)Nc1ccc(OC[C@](C)(O)C(=O)Nc2ccc([N+](=O)[O-])c(C)c2)cc1 [Example 3, (2S)-3-(4-Acetylaminophenoxy)-2-hydroxy-2-methyl-N-(3-methyl-4-nitrophenyl)propionamide]",103,115,"relative weight of levator ani-muscle (AR; [1]): clearly increased; relative weight of the prostate (AR; [1]): only minimally; antagonistic activity in seminal vesicle (AR; TP 5 mg/kg + compound A 20 mg/kg s.c., p<0.05 compared to testosterone group): significant antagonistic activity; androgenic and anabolic activity (AR; s.c. 2 and 20 mg/kg, immature male rat, FIG. 1): shows androgenic and anabolic activity; effect on the body weights (AR; s.c. once daily for three days, immature male rat, data not shown): Neither testosterone propionate nor compound A had any effect; tissue selectivity compared with testosterone propionate (AR; s.c., immature male rat): showed tissue selectivity"
"Cc1cc(NC(=O)C(C)(O)COc2ccc(C#N)c(Cl)c2)ccc1[N+](=O)[O-] (stereo not drawn) [Example 63, 3-(3-Chloro-4-cyanophenoxy)-2-hydroxy-2-methyl-N-(3-methyl-4-nitrophenyl)propionamide]",92,98,
"Cc1cc([N+](=O)[O-])ccc1NC(=O)C(C)(O)COc1ccc(C#N)c(F)c1 (stereo not drawn) [Example 64, 3-(4-Cyano-3-fluorophenoxy)-2-hydroxy-2-methyl-N-(2-methyl-4-nitrophenyl)propionamide]",79,89,
"CC(O)(COc1ccc(C#N)c(F)c1)C(=O)Nc1ccc([N+](=O)[O-])c(C=O)c1 (stereo not drawn) [Example 66, 3-(4-Cyano-3-fluorophenoxy)-N-(3-formyl-4-nitrophenyl)-2-hydroxy-2-methylpropionamide]",69,93,
"Cc1cc(NC(=O)C(C)(O)COc2ccc(CCCCl)cc2)ccc1[N+](=O)[O-] (stereo not drawn) [Example 79, 3-[4-(3-Chloropropyl)phenoxy]-2-hydroxy-2-methyl-N-(3-methyl-4-nitrophenyl)propionamide]",89,98,
"Cc1cc(NC(=O)C(C)(O)COc2ccc(OCCCl)cc2)ccc1[N+](=O)[O-] (stereo not drawn) [Example 80, 3-[4-(2-Chloroethoxy)phenoxy]-2-hydroxy-2-methyl-N-(3-methyl-4-nitrophenyl)propionamide]",87,99,
"COCc1ccc(OCC(C)(O)C(=O)Nc2ccc([N+](=O)[O-])c(C)c2)cc1 (stereo not drawn) [Example 81, 2-Hydroxy-3-(4-methoxymethylphenoxy)-2-methyl-N-(3-methyl-4-nitrophenyl)propionamide]",85,98,
"CCC(=O)O[C@H]1CC[C@H]2[C@@H]3CCC4=CC(=O)CC[C@]4(C)[C@H]3CC[C@]12C [testosterone propionate, Testosterone propionate, reference compound]",,,"relative weight of levator ani-muscle (AR; [2]): increased significantly; relative weight of seminal vesicle (AR; [2]): increased significantly; relative weight of ventral prostate (AR; [2]): increased significantly; effect on the body weights (AR; rat, in vivo, sc): Neither testosterone propionate nor compound A had any effect"

# From patent US7390923B2, “Propionamide derivatives useful as androgen receptor modulators” (Orion Corporation, priority 2003, dated 2008)
